Data set [1] deals with E. coli DH10B-T7His-Theo4. It counts as cell-based, Escherichia coli.
Procedure: The performance of the cascade was measured using GFPuv expression (FIG. 12). Specifically, the theophylline dependency of the cascade at 0.8 mg/L rhamnose was measured. […] Additionally, expression of GFPuv over a wide range of rhamnose and theophylline concentrations was determined.
E. coli DH10B-T7His-Theo4 was grown overnight at 37° C. in LB medium containing kanamycin (50 mg/L). A 96 well 2 ml culture plate (Greiner) was filled with a concentrate of theophylline and L-rhamnose. […] Culture plates were incubated at 37° C. overnight under continuous shaking. The bacteria were centrifuged for 10 minutes at 4700 rpm in a Sorval Legend centrifuge. The supernatant was cleared and the cell pellet was resuspended in 500 μL 50 mM Tris-HCl pH 7.5. After resuspension, the plates were incubated at 37° C. for 1 hour to allow maturation of the GFPuv. 100 μL of suspension was pipetted into a 98 well black plate with clear bottom (Perkin Elmer) and measured with a Synergy MX plate reader. The cell density was measured by scattering at 600 nm and the fluorescence was measured at an excitation wavelength of 385 nm with a width of 20 nm and an emission wavelength of 508 nm with 20 nm width with a gain of 50. The background fluorescence and background scattering were subtracted and the fluorescence was divided by the scattering at 600 nm. The background fluorescence of bacteria without either GFPuv or T7His polymerase was negligible, but the fluorescence caused by other components than GFPuv in the bacteria was still subtracted.
The theophylline dependency of the cascade in response to differing concentrations of rhamnose was measured. E. coli DH10B-T7His-Theo4 diluted from an overnight culture were grown overnight in a 2 mL culture plate containing a variable amount of L-rhamnose and theophylline. The medium was cleared and the bacteria were resuspended in 50 mM Tris-HCl pH 7.5. The fluorescence was measured at an excitation wavelength of 385 nm and an emission wavelength of 508 nm. The cell density was measured by scattering at 600 nm.
Data set [2] has as its system thyA-deficient E. coli DH10B strain. How it is done: A comparison of a single intron construct with a construct of the present invention featuring a tandem self-splicing intron was made (FIG. 9). Growth (OD600) was plotted against time (minutes) in the presence (1 mM) and absence (0 mM) of theophylline for the construct designed by Thompson et al. (Thompson et al. 2002 BMC Biotechnol. 2: 21) utilising one theophylline-dependent intron in thyA, in a thyA-deficient E. coli DH10B strain (FIG. 9A). […] Growth was measured in the same way for a construct containing an E. coli thyA gene interrupted by two theophylline-dependent introns, which was transformed into a thyA-deficient E. coli DH10B strain. The overnight growth was plotted against the theophylline concentration in the medium (FIG. 9B).

The test system of data set [3] is thyA knockout strain of E. coli. As to conditions: single theophylline-dependent intron, background subtracted; cited from earlier work.

With `Cn1c(=O)c2[nH]cnc2n(C)c1=O` [theophylline], the “fold-change in GFPuv fluorescence caused by theophylline” value in data set [1] (at any L-rhamnose concentration) is on record as “around 15 times”. For the same molecule, in data set [1] (fully induced with rhamnose and theophylline), the “signal of fully induced system relative to strong TacI promoter (pSC034f)” value is on record as 5-6 times. Moreover, in data set [2] (overnight growth, E. coli DH10B thyA-deficient), the “concentration above which theophylline became slightly toxic” value is “Above 1 mM”. Besides, the Kd in data set [2] (read-out: apparent kd value, Michaelis-Menten-like profile of overnight growth vs theophylline concentration, two introns in thyA) is 100 to 200 µM. In addition, the “theophylline-induced growth, % of the parental intron” value in data set [3] was “approximately 40%”.
For the molecule `C[C@H](O)[C@H](O)[C@@H](O)[C@@H](O)C=O` [rhamnose, L-rhamnose], the “background expression, % of the maximum expression” value in data set [1] (fully induced with rhamnose, theophylline absent, one intron cascade) was “about 7.5%”.

Source of the values: patent publication US20180119156A1, “[…] GENE EXPRESSION” (priority 2015, published 2018).
